This passage reports EC50 results from US20220081433A1, “CYCLIC SULFAMIDE COMPOUNDS FOR TREATMENT OF HBV” (Assembly Biosciences, Inc., priority 2018, published 2022).

In this test the test system is HBV. Description: Activity of test compounds on viral production from HepAD38 cells (viral load by qPCR of HBV core sequence). Type of test: cell-based. The following applies: Hepatitis B virus, 120 h, 5 days, supernatant HBV DNA by qPCR vs DMSO control, read-out: viral load lowering EC50 (Activity). The method, then:
Assay Measuring Activity of Test Compounds on Viral Production from HepAD38 Cells
HepAD38 cells grown in a T-150 flask (Corning, cat#: 430825) with Growth Medium (DMEM/F12 (1:1) (Hyclone, cat#: SH30023.02), 1× Pen/Strep (Invitrogen, cat#: 15140-122), 10% FBS (Tissue Culture Biologics, cat#: 101), 250 μg/mL G418 (Alfa Aesar, cat#: J62671), 1 μg/mL Tetracycline (Teknova, cat#: T3320)) were detached with 0.25% trypsin-EDTA (Invitrogen, cat#: 25200-056). Tetracycline-free treatment medium (15 mL DMEM/F12 (1:1) 1×Pen/step, with 2% FBS, Tet-system approved (Clontech, cat#: 631106) were then added to mix, transferred into a 50 ml conical tube (Falcon, cat#: 21008-918) and spun at 1300 rpm for 5 min. Pelleted cells were then re-suspended/washed with 50 mL of 1×DPBS (Invitrogen, cat#: 14190-136) 2 times and 50 mL treatment medium twice. HepAD38 cells were then re-suspended with 10 mL of treatment medium, syringed and counted. Wells of 96-well clear bottom TC plate (Corning, cat#: 3904) were seeded at 50,000 cells/well in 180 μL of treatment medium, and 20 μL of either 10% DMSO (Sigma, cat#: D4540) as controls or a 10× solution of test compounds in 10% DMSO in treatment media was added for a final compound concentration starting at 10 μM, and plates were incubated in 5% CO2 incubator at 37° C. for 5 days.
Subsequently viral load production was assayed by quantitative PCR (qPCR) of the HBV core sequence. PCR reaction mixture containing forward primers HBV-f 5′-CTGTGCCTTGGGTGGCTTT-3′ (IDT DNA), Reverse primers HBV-r 5′-[…]-3′ (IDT DNA), Fluorescent TaqMan™ Probes HBV-probe 5′-FAM/AGCTCCAAA/ZEN/[…]/3IABkFQ-3′ (IDT DNA), 10 μL/well of PerfeCTa® qPCR ToughMix® (Quanta Biosciences, Cat#: 95114-05K), and 6 μL/well of DEPC water (Alfa Aesar, cat#: J62087) was prepared. Four μL of supernatant was added to 16 μL of the reaction mixture in a qPCR plate (Applied Biosytems, Cat#: 4309849), sealed with a film (Applied Biosystems, Cat#: 4311971), centrifuged for a few seconds, and subsequently run on an Applied Biosystems VIIA7. The PCR mixture was incubated at 45° C. for 5 min, then 95° C. for 10 min, followed by 40 cycles of 10 seconds at 95° C. and 20 seconds at 60° C. Viral load was quantified against known HBV DNA standards by using ViiA™ 7 Software. Viral load in the supernatant from wells with treated cells were compared against viral load in supernatant from DMSO control wells (≥ 3 per plate). Cell viability assay was performed with CellTiter-Glo Luminescent Cell Viability Assay (Promega, cat#: G7573) with modification. Mixed appropriate amount of CellTiter-Glo (CTG) 1×DPBS in a 1:1 ratio, added 100 uL of the mixture to each well followed completely removal of all supernatant in each well without touching cell surface. Incubated the plate at room temperature for 10 min on an orbital shaker, and then read the plate with a plate reader (TECAN M1000 or Envision). EC50 or CC50 values were calculated through curve-fitting of the four-parameter nonlinear-logistic-regression model (GraphPad Prism or Dotmatics). CC50 values were all >10 μM.
(In general: Quantitative PCR measures a nucleic acid by following its amplification.)

One may read the EC50 as the concentration at which the effect is half-maximal. `CN1C(C(=O)Nc2ccc(F)c(Cl)c2)CC(c2ncc(-c3ccccc3)n2C)NS1(=O)=O` (stereo not drawn) [Example 34, N-(3-Chloro-4-fluorophenyl)-2-methyl-5-(1-methyl-5-phenyl-1H-imidazol-2-yl)-1,2,6-thiadiazinane-3-carboxamide 1,1-dioxide]: the EC50 was in the range of 5 to 10 µM.
Regarding `Cc1ccc(-c2cccc([C@@H]3C[C@H](C(=O)Nc4ccc(F)c(Cl)c4)N(C)S(=O)(=O)N3)c2)c(Cl)c1` (single isomer, unassigned) [6-Isomer II], the concentration for a half-maximal effect (EC50) lay within 1 to 5 µM.
For `Cc1ccc(-c2cccc(C3CC(C(=O)Nc4ccc(F)c(Cl)c4)N(C)S(=O)(=O)N3)c2)c(Cl)c1` (stereo not drawn) [Example 6, 5-(2′-Chloro-4′-methyl-[1,1′-biphenyl]-3-yl)-N-(3-Chloro-4-fluorophenyl)-2-methyl-1,2,6-thiadiazinane-3-carboxamide 1,1-dioxide] the value was less than 1 µM; for `CN1C(C(=O)Nc2ccc(F)c(Cl)c2)CC(c2cccc(N3CCOCC3)c2)NS1(=O)=O` (stereo not drawn) [Example 24, N-(3-Chloro-4-fluorophenyl)-2-methyl-5-(3-morpholinophenyl)-1,2,6-thiadiazinane-3-carboxamide 1,1-dioxide], less than 1 µM.
For `Cc1cc(-c2cccc([C@H]3C[C@@H](C(=O)Nc4ccc(F)c(Cl)c4)N(C)S(=O)(=O)N3)c2)ccn1` (single isomer, unassigned) [3-Isomer I] the value was less than 1 µM; for `COC(=O)Cc1ccc(-c2cccc(C3CC(C(=O)Nc4ccc(F)c(Cl)c4)N(C)S(=O)(=O)N3)c2)cc1` (stereo not drawn) [Example 15, Methyl 2-(3′-(5-((3-chloro-4-fluorophenyl)carbamoyl)-6-methyl-1,1-dioxido-1,2,6-thiadiazinan-3-yl)-[1,1′-biphenyl]-4-yl)acetate], less than 1 µM.
For `Cc1nn(C)cc1-c1cccc(C2CC(C(=O)Nc3ccc(F)c(Cl)c3)N(C)S(=O)(=O)N2)c1` (stereo not drawn) [Example 16, N-(3-Chloro-4-fluorophenyl)-5-(3-(1,3-dimethyl-1H-pyrazol-4-yl)phenyl)-2-methyl-1,2,6-thiadiazinane-3-carboxamide 1,1-dioxide] the value was less than 1 µM; for `CN1C(C(=O)Nc2ccc(F)c(Cl)c2)CC(c2cccc(-c3ccc(Cl)c(Cl)c3)c2)NS1(=O)=O` (stereo not drawn) [Example 9, N-(3-Chloro-4-fluorophenyl)-5-(3′,4′-dichloro-[1,1′-biphenyl]-3-yl)-2-methyl-1,2,6-thiadiazinane-3-carboxamide 1,1-dioxide], 1 to 5 µM; for `CN1[C@H](C(=O)Nc2ccc(F)c(Cl)c2)C[C@H](c2cccc(-c3ccccc3)c2)NS1(=O)=O` (single isomer, unassigned) [2-Isomer I], less than 1 µM.
In the case of `CN1C(C(=O)Nc2ccc(F)c(Cl)c2)CC(c2nnc(Cc3ccccc3)n2C)NS1(=O)=O` (stereo not drawn) [Example 33, 5-(5-Benzyl-4-methyl-4H-1,2,4-triazol-3-yl)-N-(3-chloro-4-fluorophenyl)-2-methyl-1,2,6-thiadiazinane-3-carboxamide 1,1-dioxide], the EC50 was 5 to 10 µM.
For `CN1[C@@H](C(=O)Nc2ccc(F)c(Cl)c2)C[C@@H](c2cccc(-c3cccc(C(=O)O)c3)c2)NS1(=O)=O` (single isomer, unassigned) [19-Isomer II] the value was 5 to 10 µM.
In the case of `CN1[C@H](C(=O)Nc2ccc(F)c(Cl)c2)C[C@H](c2cccc(-c3ccc(C#N)cc3)c2)NS1(=O)=O` (single isomer, unassigned) [4-Isomer I], the EC50 was less than 1 µM.
Take `CN1[C@@H](C(=O)Nc2ccc(F)c(Cl)c2)C[C@@H](c2cccc(-c3ccc(F)cc3Cl)c2)NS1(=O)=O` (single isomer, unassigned) [5-Isomer II]: the 50% effective concentration (EC50) lay in the range of 1 to 5 µM.
In the case of `CN1C(C(=O)Nc2ccc(F)c(Cl)c2)CC(c2cccc(N3CCCCC3)c2)NS1(=O)=O` (stereo not drawn) [Example 23, N-(3-Chloro-4-fluorophenyl)-2-methyl-5-(3-(piperidin-1-yl)phenyl)-1,2,6-thiadiazinane-3-carboxamide 1,1-dioxide], the EC50 is less than 1 µM.
For `CN1C(C(=O)Nc2ccc(F)c(Cl)c2)CC(c2cccc(-n3cccn3)c2)NS1(=O)=O` (stereo not drawn) [Example 26, 5-(3-(1H-Pyrazol-1-yl)phenyl)-N-(3-chloro-4-fluorophenyl)-2-methyl-1,2,6-thiadiazinane-3-carboxamide 1,1-dioxide] the value was less than 1 µM.
As to `CN1CC=C(c2cccc(C3CC(C(=O)Nc4ccc(F)c(Cl)c4)N(C)S(=O)(=O)N3)c2)CC1` (stereo not drawn) [Example 18, N-(3-Chloro-4-fluorophenyl)-2-methyl-5-(3-(1-methyl-1,2,3,6-tetrahydropyridin-4-yl)phenyl)-1,2,6-thiadiazinane-3-carboxamide 1,1-dioxide], the EC50 is less than 1 µM.
For `CN1[C@@H](C(=O)Nc2ccc(F)c(Cl)c2)C[C@@H](c2cccc(-c3ccc(Cl)c(Cl)c3)c2)NS1(=O)=O` (single isomer, unassigned) [9-Isomer II] the value was 5 to 10 µM.
For `CN1C(C(=O)Nc2ccc(F)c(Cl)c2)CC(c2cccc(C3CC3)c2)NS1(=O)=O` (stereo not drawn) [Example 13, N-(3-Chloro-4-fluorophenyl)-5-(3-cyclopropylphenyl)-2-methyl-1,2,6-thiadiazinane-3-carboxamide 1,1-dioxide] the value was less than 1 µM.
For `COc1ccc(-c2cccc(C3CC(C(=O)Nc4ccc(F)c(Cl)c4)N(C)S(=O)(=O)N3)c2)cc1C(F)(F)F` (stereo not drawn) [Example 14, N-(3-Chloro-4-fluorophenyl)-5-(4′-methoxy-3′-(trifluoromethyl)-[1,1′-biphenyl]-3-yl)-2-methyl-1,2,6-thiadiazinane-3-carboxamide 1,1-dioxide] the value was 1 to 5 µM.
With `CC(C)c1ccc(-c2cccc(C3CC(C(=O)Nc4ccc(F)c(Cl)c4)N(C)S(=O)(=O)N3)c2)cc1` (stereo not drawn) [Example 7, N-(3-Chloro-4-fluorophenyl)-5-(4′-isopropyl-[1,1′-biphenyl]-3-yl)-2-methyl-1,2,6-thiadiazinane-3-carboxamide 1,1-dioxide], the EC50 is less than 1 µM.
For `CN1C(C(=O)Nc2ccc(F)c(Cl)c2)CC(c2cccc(-c3ccc(C#N)cc3)c2)NS1(=O)=O` (stereo not drawn) [Example 4, N-(3-Chloro-4-fluorophenyl)-5-(4′-cyano-[1,1′-biphenyl]-3-yl)-2-methyl-1,2,6-thiadiazinane-3-carboxamide 1,1-dioxide] the value was less than 1 µM.
For `COC(=O)c1cccc(-c2cccc(C3CC(C(=O)Nc4ccc(F)c(Cl)c4)N(C)S(=O)(=O)N3)c2)c1` (stereo not drawn) [Example 12, Methyl 3′-(5-((3-Chloro-4-fluorophenyl)carbamoyl)-6-methyl-1,1-dioxido-1,2,6-thiadiazinan-3-yl)-[1,1′-biphenyl]-3-carboxylate] the value was less than 1 µM; for `CN1[C@H](C(=O)Nc2ccc(F)c(Cl)c2)C[C@H](c2cccc(N3CCOCC3)c2)NS1(=O)=O` (single isomer, unassigned) [24-Isomer I], less than 1 µM; for `Cc1cc(-c2cccc([C@@H]3C[C@H](C(=O)Nc4ccc(F)c(Cl)c4)N(C)S(=O)(=O)N3)c2)ccn1` (single isomer, unassigned) [3-Isomer II], 5 to 10 µM.
As to `CN1[C@H](C(=O)Nc2ccc(F)c(Cl)c2)C[C@H](c2cccc(-c3ccc(F)cc3Cl)c2)NS1(=O)=O` (single isomer, unassigned) [5-Isomer I], the concentration giving a half-maximal response (EC50) is less than 1 µM.
Turning to `CN1[C@@H](C(=O)Nc2ccc(F)c(Cl)c2)C[C@@H](c2cccc(-c3cccc(C(F)(F)F)c3)c2)NS1(=O)=O` (single isomer, unassigned) [8-Isomer II], the EC50 was in the range of 5 to 10 µM.
For the compound `CN1CCN(c2cccc([C@@H]3C[C@H](C(=O)Nc4ccc(F)c(Cl)c4)N(C)S(=O)(=O)N3)c2)CC1` (single isomer, unassigned) [25-Isomer II], the EC50 was in the range of 1 to 5 µM.
